Test results taken from the supplement of paper PMC10307832.

Key:
Assay in all cases: relative viability (nuclei count vs DMSO), 5 days (fraction); higher = more cells survive
[1] = compound: C1CC(C2=C(C1)C3=C(N2)C=CC(=C3)Cl)C(=O)N [Selisistat] + CC1(C)CCC(c2ccc(Cl)cc2)=C(CN2CCN(c3ccc(C(=O)NS(=O)(=O)c4ccc(N[C@H](CCN5CCOCC5)CSc5ccccc5)c(S(=O)(=O)C(F)(F)F)c4)cc3)CC2)C1 [Navitoclax] (partner 0.5 µM)
Outline: (§1)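 For relative viability, nuclei counts in treated wells were divided by those in vehicle wells. Lung cancer cell lines had been pin-tool dosed in 1536-well plates the day after seeding and cultured for 5 days, then fixed and stained in one step (final 0.05% Triton X-100, 1% formaldehyde, 1 ug/ml Hoechst) and imaged at 4×. Doses were one drug alone or a fixed anchor-drug dose plus five library-drug doses (not always all listed) in √10 steps, and values are duplicate-plate medians.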

[2] = compound: c1ccc2c(CCNc3ccc(Nc4ccncc4)cc3)c[nH]c2c1 [Serdemetan] + Cc1cc(Nc2cc(N3CCN(C)CC3)nc(Sc3ccc(NC(=O)C4CC4)cc3)n2)n[nH]1 [Tozasertib] (partner 0.1 µM)
Outline: as §1

[3] = compound: c1ccc2c(CCNc3ccc(Nc4ccncc4)cc3)c[nH]c2c1 [Serdemetan] + N=C(N)NC(=N)NCCc1ccccc1 [Phenformin] (partner 250 µM)
Outline: as §1

[4] = compound: c1ccc2c(CCNc3ccc(Nc4ccncc4)cc3)c[nH]c2c1 [Serdemetan] + Nc1ncn([C@H]2C[C@H](O)[C@@H](CO)O2)c(=O)n1 [Decitabine] (partner 2 µM)
Outline: as §1

## UMC-11
[1]; first compound 0.4 µM
  relative viability: 0.296
[1]; first compound 1.265 µM
  relative viability: 0.294
[1]; first compound 4 µM
  relative viability: 0.276
[1]; first compound 12.65 µM
  relative viability: 0.316
[1]; first compound 40 µM
  relative viability: 0.332
[2]; first compound 0.04 µM
  relative viability: 0.224
[2]; first compound 0.1265 µM
  relative viability: 0.199
[2]; first compound 0.4 µM
  relative viability: 0.208
[2]; first compound 4 µM
  relative viability: 0.233
[3]; first compound 0.04 µM
  relative viability: 0.312
[3]; first compound 0.1265 µM
  relative viability: 0.31
[3]; first compound 4 µM
  relative viability: 0.321
[4]; first compound 0.04 µM
  relative viability: 0.564
[4]; first compound 0.1265 µM
  relative viability: 0.387
[4]; first compound 0.4 µM
  relative viability: 0.685
[4]; first compound 1.265 µM
  relative viability: 0.649
[4]; first compound 4 µM
  relative viability: 0.532
